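Grown in 96-well plates, cells were treated for 48 hours with each compound at five concentrations. Insufficient inhibition: endpoint recorded as highest concentration tested. GI50 is the concentration that inhibits growth by half.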 Calls of active or inactive are those of the source. Rule as the data show it: active = GI50 up to about 1.1 µM and inactive = higher.
Assays:
Experiment in all cases: NCI anticancer screen, dose series, 48 h
CAKI-1 = tested on: CAKI-1
HCT-116 = tested on: HCT-116
HL-60 = tested on: HL-60
K562 = tested on: K562
LOX IMVI = tested on: LOX IMVI
MDA-N = tested on: MDA-N
MOLT-4 = tested on: MOLT-4
OVCAR-3 = tested on: OVCAR-3
SF-268 = tested on: SF-268
SF-539 = tested on: SF-539
SK-MEL-5 = tested on: SK-MEL-5
SK-OV-3 = tested on: SK-OV-3
SW-620 = tested on: SW-620
TK-10 = tested on: TK-10
U-251 = tested on: U-251
ACHN = tested on: ACHN
SNB-19 = tested on: SNB-19
SR = tested on: SR
Hs-578T = tested on: Hs-578T

| SMILES | GI50 (CAKI-1) | GI50 (HCT-116) | GI50 (HL-60) | GI50 (K562) | GI50 (LOX IMVI) | GI50 (MDA-N) | GI50 (MOLT-4) | GI50 (OVCAR-3) | GI50 (SF-268) | GI50 (SF-539) | GI50 (SK-MEL-5) | GI50 (SK-OV-3) | GI50 (SW-620) | GI50 (TK-10) | GI50 (U-251) | GI50 (ACHN) | GI50 (SNB-19) | GI50 (SR) | GI50 (Hs-578T) |
| --- | --- | --- | --- | --- | --- | --- | --- | --- | --- | --- | --- | --- | --- | --- | --- | --- | --- | --- | --- |
| N#CC1(C#N)NC(c2cccnc2)C(C#N)(C#N)NC1c1cccnc1 (configuration not stated) | > 100 µM (inactive) | > 100 µM (inactive) | > 100 µM (inactive) | > 100 µM (inactive) | > 100 µM (inactive) | > 100 µM (inactive) | > 100 µM (inactive) | > 100 µM (inactive) | > 100 µM (inactive) | > 100 µM (inactive) | > 100 µM (inactive) | > 100 µM (inactive) | > 100 µM (inactive) | > 100 µM (inactive) | > 100 µM (inactive) |  |  |  |  |
| O=C(O)c1ccccc1NS(=O)(=O)c1ccc([N+](=O)[O-])cc1 | > 100 µM (inactive) | > 100 µM (inactive) |  | > 100 µM (inactive) | > 100 µM (inactive) |  | > 100 µM (inactive) | > 100 µM (inactive) | > 100 µM (inactive) | > 100 µM (inactive) | > 100 µM (inactive) | > 100 µM (inactive) | > 100 µM (inactive) | > 100 µM (inactive) | > 100 µM (inactive) | > 100 µM (inactive) | > 100 µM (inactive) |  |  |
| O=c1[nH]c(=S)c2cc3c(=S)[nH]c(=O)n(CCO)c3nc2n1CCO | > 100 µM (inactive) | > 100 µM (inactive) |  | > 100 µM (inactive) | > 100 µM (inactive) | > 100 µM (inactive) | > 100 µM (inactive) | > 100 µM (inactive) | > 100 µM (inactive) | > 100 µM (inactive) | > 100 µM (inactive) | > 100 µM (inactive) | > 100 µM (inactive) | > 100 µM (inactive) | > 100 µM (inactive) | > 100 µM (inactive) | > 100 µM (inactive) | > 100 µM (inactive) |  |
| CN(C)c1ccc(/C=N/c2ccc(-c3nc4ccccc4s3)cc2)cc1 | 28.6 µM (inactive) | 33 µM (inactive) | 0.0408 µM (active) | 28.8 µM (inactive) | 33.3 µM (inactive) | 34.5 µM (inactive) | 23.2 µM (inactive) | 15.9 µM (inactive) |  | 52.8 µM (inactive) | 19.3 µM (inactive) | 36.8 µM (inactive) | 22.9 µM (inactive) | 30.1 µM (inactive) | 29.2 µM (inactive) | 17.4 µM (inactive) | 57.9 µM (inactive) | 36.3 µM (inactive) |  |
| Nc1c(C(=O)c2ccc(Cl)c(Cl)c2)[nH]c(NCc2ccccc2)c1C(=S)Nc1ccccc1 | 15.3 µM (inactive) | 3.48 µM (inactive) | 19.1 µM (inactive) | 3.32 µM (inactive) | 2.21 µM (inactive) | 3.64 µM (inactive) | 3.31 µM (inactive) | 17.5 µM (inactive) | 14.1 µM (inactive) | 2.68 µM (inactive) |  | 17.2 µM (inactive) | 3.22 µM (inactive) | 17.8 µM (inactive) | 3.96 µM (inactive) | 12.2 µM (inactive) | 18.5 µM (inactive) | 3.1 µM (inactive) |  |
| COCc1nc2c(OC)c(-c3nc4ccc(N5CCN(C)CC5)nc4[nH]3)cc(OC)c2n1C | 40.7 µM (inactive) | 41.3 µM (inactive) | 17.4 µM (inactive) | 29.3 µM (inactive) | 19.1 µM (inactive) | 37.7 µM (inactive) | 16.4 µM (inactive) | 53.6 µM (inactive) | 45.2 µM (inactive) | 12.3 µM (inactive) |  | 66.5 µM (inactive) | 28.6 µM (inactive) |  | 21.7 µM (inactive) | 17.5 µM (inactive) | 35.4 µM (inactive) |  | 55.3 µM (inactive) |
| O=C1c2ccccc2-c2nc3ccncc3n21 | > 100 µM (inactive) | 30.5 µM (inactive) | > 100 µM (inactive) | > 100 µM (inactive) |  | 31.1 µM (inactive) | > 100 µM (inactive) | > 100 µM (inactive) | > 100 µM (inactive) | > 100 µM (inactive) |  | > 100 µM (inactive) | > 100 µM (inactive) | > 100 µM (inactive) | > 100 µM (inactive) | > 100 µM (inactive) | > 100 µM (inactive) | > 100 µM (inactive) |  |
| C=CCOc1ccc(C2C(C(=O)OC)C(=O)CC(O)(c3ccccc3)C2C(=O)OC)cc1OC (configuration not stated) | 32.3 µM (inactive) | 20 µM (inactive) | 31.6 µM (inactive) | 51.2 µM (inactive) | 40.1 µM (inactive) | 58.9 µM (inactive) | 27.5 µM (inactive) | 45.6 µM (inactive) | 20.5 µM (inactive) |  | 35.3 µM (inactive) |  | > 100 µM (inactive) | 33.7 µM (inactive) | 32 µM (inactive) | 38.1 µM (inactive) | > 100 µM (inactive) | 27.4 µM (inactive) |  |
| CC(C)Oc1c(-c2ccc(F)cc2)c(O)c2c3c1oc(=O)n3C=CC2C (configuration not stated) | 14.2 µM (inactive) | 12.9 µM (inactive) | 10.4 µM (inactive) | 6.59 µM (inactive) | 14.5 µM (inactive) | 12.4 µM (inactive) | 6.07 µM (inactive) | 14.4 µM (inactive) | 17.3 µM (inactive) | 13.4 µM (inactive) | 10.8 µM (inactive) | 24 µM (inactive) | 14.3 µM (inactive) | 16.9 µM (inactive) | 15.5 µM (inactive) | 14.5 µM (inactive) | 15.8 µM (inactive) |  | 20.2 µM (inactive) |
| CC[C@@H]1CC[C@@H]2[C@H](CC[C@]3(C)[C@@H](OC(C)=O)CC[C@@H]23)[C@H]1C(=O)OC | 35.3 µM (inactive) | 17.9 µM (inactive) | 13.3 µM (inactive) | 20 µM (inactive) | 20 µM (inactive) | 19.5 µM (inactive) | 19.5 µM (inactive) | 19.4 µM (inactive) | 23.4 µM (inactive) | 19.2 µM (inactive) | 14.6 µM (inactive) | > 100 µM (inactive) | 21.8 µM (inactive) | > 100 µM (inactive) | 21.2 µM (inactive) | 40 µM (inactive) | 25.4 µM (inactive) |  | 46.1 µM (inactive) |
| CCCc1n[nH]c(=O)n1N1C(=O)C=CC1=O | > 100 µM (inactive) | > 100 µM (inactive) |  | > 100 µM (inactive) |  | > 100 µM (inactive) | > 100 µM (inactive) | > 100 µM (inactive) |  | > 100 µM (inactive) | > 100 µM (inactive) | > 100 µM (inactive) |  | > 100 µM (inactive) | > 100 µM (inactive) |  |  | > 100 µM (inactive) |  |
| CN(C)CCCN1c2ccc([N+](=O)[O-])cc2CCc2cc([N+](=O)[O-])ccc21 |  | 14.4 µM (inactive) | 13.6 µM (inactive) | 19.4 µM (inactive) | 16.9 µM (inactive) | 13.8 µM (inactive) | 14.5 µM (inactive) | 15.5 µM (inactive) | 15.4 µM (inactive) | 15.7 µM (inactive) | 15.7 µM (inactive) | 17.2 µM (inactive) | 15.3 µM (inactive) | 11.3 µM (inactive) | 16.2 µM (inactive) | 11.4 µM (inactive) | 17.8 µM (inactive) |  | 15.2 µM (inactive) |
| CC(=O)O[C@@H]1[C@H]2O[C@H]2[C@H]2O[C@@]2(COC(=O)c2ccccc2)[C@H]1OC(C)=O | 99.1 µM (inactive) | > 100 µM (inactive) | > 100 µM (inactive) | > 100 µM (inactive) | > 100 µM (inactive) | > 100 µM (inactive) | 32.1 µM (inactive) | > 100 µM (inactive) | > 100 µM (inactive) | > 100 µM (inactive) | > 100 µM (inactive) | > 100 µM (inactive) | > 100 µM (inactive) | > 100 µM (inactive) | > 100 µM (inactive) | 16.9 µM (inactive) | > 100 µM (inactive) |  | > 100 µM (inactive) |
| COc1cccc(C2CC(=O)c3cccn32)c1 (configuration not stated) | > 100 µM (inactive) | > 100 µM (inactive) | 32.4 µM (inactive) | > 100 µM (inactive) | > 100 µM (inactive) |  | 71.8 µM (inactive) | > 100 µM (inactive) | 69.3 µM (inactive) | > 100 µM (inactive) |  | > 100 µM (inactive) | > 100 µM (inactive) | > 100 µM (inactive) | > 100 µM (inactive) | > 100 µM (inactive) | > 100 µM (inactive) | > 100 µM (inactive) | 23.4 µM (inactive) |
| CNC(=O)CCCNC(=O)CCCCC(=O)N(C)C | > 100 µM (inactive) | > 100 µM (inactive) |  | > 100 µM (inactive) |  | > 100 µM (inactive) | 89.5 µM (inactive) | > 100 µM (inactive) | > 100 µM (inactive) | > 100 µM (inactive) | > 100 µM (inactive) | > 100 µM (inactive) | > 100 µM (inactive) | > 100 µM (inactive) | > 100 µM (inactive) | > 100 µM (inactive) | > 100 µM (inactive) |  |  |
| CC(=O)Nc1ccc(/N=N\c2c(O)c(S(=O)(=O)O)cc3cc(S(=O)(=O)O)ccc23)cc1 | > 100 µM (inactive) | > 100 µM (inactive) |  | > 100 µM (inactive) |  | > 100 µM (inactive) |  | > 100 µM (inactive) | > 100 µM (inactive) |  | > 100 µM (inactive) | > 100 µM (inactive) | > 100 µM (inactive) | > 100 µM (inactive) | > 100 µM (inactive) | > 100 µM (inactive) | > 100 µM (inactive) |  | > 100 µM (inactive) |
| Cc1cc2c(-c3ccccc3)cc(=O)[nH]c2cc1N | > 100 µM (inactive) | > 100 µM (inactive) |  | > 100 µM (inactive) | > 100 µM (inactive) | > 100 µM (inactive) | > 100 µM (inactive) | > 100 µM (inactive) |  | > 100 µM (inactive) | > 100 µM (inactive) |  | > 100 µM (inactive) |  | > 100 µM (inactive) | > 100 µM (inactive) | > 100 µM (inactive) | > 100 µM (inactive) |  |
